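Cells were grown in 96-well plates and exposed to each compound for 48 hours at five concentrations; endpoints were interpolated linearly between bracketing concentrations, or set to the highest concentration if not reached. GI50 marks 50% less growth. TGI marks complete inhibition of growth.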
Tests used:
Assay in all cases: NCI tumour cell line growth inhibition, 48 h
[1] = tested on: A498 renal
[2] = tested on: BT-549 breast
[3] = tested on: CAKI-1 renal
[4] = tested on: HOP-92 NSCLC
[5] = tested on: K-562 leukemia
[6] = tested on: MCF7 breast
[7] = tested on: RXF 393 renal
[8] = tested on: SK-OV-3 ovarian
[9] = tested on: SNB-19 CNS
[10] = tested on: SW-620 colon

| SMILES | GI50 [1] | TGI [1] | GI50 [2] | TGI [2] | GI50 [3] | TGI [3] | GI50 [4] | TGI [4] | GI50 [5] | TGI [5] | GI50 [6] | TGI [6] | GI50 [7] | TGI [7] | GI50 [8] | TGI [8] | GI50 [9] | TGI [9] | GI50 [10] | TGI [10] |
| --- | --- | --- | --- | --- | --- | --- | --- | --- | --- | --- | --- | --- | --- | --- | --- | --- | --- | --- | --- | --- |
| NC1CCC(N[C@@H]2C[C@H]2c2ccccc2)CC1 (stereo not given in full) | 21.4 µM | > 100 µM | > 100 µM | > 100 µM | 32 µM | > 100 µM | 5.47 µM | > 100 µM | 29.9 µM | > 100 µM | > 100 µM | > 100 µM | 59.2 µM | > 100 µM | > 100 µM | > 100 µM | > 100 µM | > 100 µM | > 100 µM | > 100 µM |
| N#C/C(=C\c1ccc(Br)cc1)n1nnc2ccccc21 | 1.71 µM | 4.37 µM | 0.566 µM | 4.85 µM | 0.345 µM | 2 µM | 0.23 µM | 1.58 µM | 0.235 µM | > 19.7 µM | 0.303 µM | 6.2 µM | 0.427 µM | 1.94 µM | 5.11 µM | 22.1 µM | 0.763 µM | 2.41 µM | 0.318 µM | 1.57 µM |
| COc1cc(/C=C2\C(=O)Nc3cccc(Cl)c32)cc(OC)c1OC | > 100 µM | > 100 µM | > 100 µM | > 100 µM | > 100 µM | > 100 µM | 23.9 µM | 93.2 µM | 29.2 µM | > 100 µM | > 100 µM | > 100 µM | 8.79 µM | 36.9 µM | > 100 µM | > 100 µM | 60.1 µM | > 100 µM | > 100 µM | > 100 µM |
| C/C(=N\N=C(N)N)C(CN(C)C)C(c1ccccc1)c1c(O)c2ccccc2oc1=O (stereo not given) |  | > 100 µM |  | > 100 µM |  | > 100 µM |  | > 100 µM |  | > 100 µM |  | > 100 µM |  | > 100 µM |  | > 100 µM |  | > 100 µM |  | > 100 µM |
| COc1cc2c(cc1OCCCCOc1ccc(-c3nc4ccccc4s3)cc1)N=C[C@@H]1CCCN1C2=O | 1.99 µM | 4.34 µM | 0.93 µM | 2.38 µM | 0.769 µM | 10.8 µM | 0.335 µM | 0.957 µM | 0.301 µM | 4.91 µM | 0.625 µM | 4.34 µM | 0.19 µM | 0.443 µM | 1.92 µM | 5.08 µM | 1.52 µM | 3.04 µM | 0.426 µM | 1.77 µM |
| NS(=O)(=O)c1ccc(NC(=O)c2cccc3cc4ccccc4nc23)cc1 |  | > 100 µM |  | > 100 µM |  | > 100 µM |  | > 100 µM |  | > 100 µM |  | > 100 µM |  | > 100 µM |  | > 100 µM |  | > 100 µM |  | > 100 µM |
